Data from US11331364B2, “Use for JNK inhibitor molecules for treatment of various diseases” (Xigen Inflammation Ltd., priority 2014, dated 2022).
Square brackets hold non-standard residues; d marks the D form. Peptide text beside a SMILES is read from it.

Experiments:
[1] = test system: Imiquimod-induced psoriasis in mice; assay: Imiquimod-induced psoriasis, ear histopathology; format: in vivo, mouse
Method: Female BALB/cAnNCrl mice (Charles River, age 8 to 10 weeks at study start) have been assigned to the following groups (treatment schedule):
In this experiment, two positive controls have been utilized. Firstly, Prednisolone at 10 mg/kg (vehicle: 1% Hydroxyethylcellulose, 0.25% Polysorbate 80, and 0.05% Antifoam in purified water) has been dosed daily and orally (group “Prednisolone”). Secondly, Dexamethasone has been administered at 0.5 mg/kg (vehicle: sterile 0.9% NaCl) on days 1, 4 and 7 via intravenous route.
On day 8, animals have been sacrificed and the tissue (ear) has been fixed in 10% neutral buffered formalin. For histopathology hematoxylin-and-eosin-stained sections (cross cut) have been prepared and microscopic evaluation on the collected tissues from all animals has been performed. Methods and end-points for histopathology were similarly described in the van der Fits (2009) paper in that inflammation, epidermal hyperplasia, epidermal hyperkeratosis (rather than parakeratosis) were observed and recorded for severity grade, whereby the respective methodology from Van der Fits et al. (The Journal of Immunology 2009, 182, P. 5836-5845) is hereby incorporated by reference. Histopathology grading scores were excluded for either skin or ear in animals with secondary inflammatory processes (full thickness epidermal ulcers). Scores were averaged by group and standard deviation and statistical significance were calculated. […] Formalin-fixed, paraffin embedded skin from the dorsal surface of the mouse (BALB/c) was stained with hematoxylin and eosin (H&E) stain and assessed microscopically. An important difference from the above reference and to describe in more detail the observations of the present study: Hyperkeratosis can be defined specifically as orthokeratotic (no retained nuclei) or parakeratotic (retained nuclei). Either can occur normally in various anatomical locations and depending on species; however, both conditions are well defined in particular disease states. The van der Fits paper describes their Imiquimod (IMQ)-induced psoriasis model as causing parakeratotic hyperkeratosis similar to what is seen in the human condition, and that was a defined end-point for this study. However, the Danilenko et al. (Veterinary Pathology 2008 45:563) has shown that many rodent psoriasis models have orthokeratotic hyperkeratosis. […] The more general term ‘hyperkeratosis’ was used for grading end-points and describe in the text what type was seen (primarily orthokeratotic).
Microscopic Histopathology end-points were graded as such: […]

[2] = dissolved in 0.9% NaCl, up to 0.4 mg/ml
Source text: To receive three different doses (cf. above, groups table) it has been serially diluted (1:10 fold).

[3] = test system: Endotoxin-Induced Uveitis (EIU) model in rats; assay: Action duration in endotoxin-induced uveitis (EIU), clinical scoring and PMN cells quantification; format: in vivo, rat
Method: […] (18) female Lewis rats (36 eyes) were randomly divided into 6 groups of 3 animals each. EIU was induced by a single footpad injection of 100 µl sterile pyrogen-free saline containing 200 µg of LPS (Lipopolysaccharides from Salmonella typhimurium, Sigma-Aldrich, France)(2 mg/ml).
Animals were treated 48 hours, 1 week, 2 weeks or 4 weeks before EIU induction by intravenous injection of the JNK inhibitor according to SEQ ID NO: 172 (“XG-104”) at a single dose of 1 mg/kg (dose volume 1 ml/kg) in the tail vein. Dexamethasone 2 mg/kg or vehicle (NaCl 0.9%) were injected intravenously immediately before EIU induction.
The effect of the JNK inhibitor according to SEQ ID NO: 172 (“XG-104”) on EIU was evaluated using clinical scoring and PMN cells quantification 24 hours after induction. Ocular examinations were performed by slit lamp at 24 hours i.e. at the clinical peak of the disease in this model. The intensity of clinical ocular inflammation was scored on a scale from 0 to 5 for each eye: • Grade 0: no inflammation, • Grade 1: presence of a minimal iris and conjunctival vasodilatation but without the observation of flare or cells in the anterior chamber (AC), • Grade 2: presence of moderate iris and conjunctival vessel dilation but without evident flare or cells in the AC, • Grade 3: presence of intense iris vessels dilation, flare and less than 10 cells per slit lamp, field in the AC, • Grade 4: presence of more severe clinical signs than grade 3, with more than 10 cells in the AC with or without the formation of a hypopyon, • Grade 5: presence of intense inflammatory reaction, fibrin formation in the AC and total seclusion of the pupil.
For histology, eighteen eyeballs (one per animal) were collected and fixed for 1 h at room temperature in phosphate buffered saline (PBS) containing 4% paraformaldehyde before being rinsed overnight in PBS. The next day, samples were embedded in optimal cutting temperature (OTC) compound (Tissue-Tek®, Sakura Finetek, Zoeterwoude, Netherland) and the optic nerve level using a cryostat (Leica CM 3050S, France) and mounted on super-frost slides for histology. After nuclei staining with DAPI (Sigma-Aldrich, France), sections were mounted in PBS/Glycerol (1/1) and observed by fluorescence photomicroscopy (FXA Microphot, Nikon, USA). Digitized micrographs were obtained usinga digital camera (Spot, BFI Optilas, France). PMN cells identified by the shape of their nuclei stained with DAPI, were quantified on histological sections. The analysis was performed with 2 different sections per eye at the optic nerve head level.
Twenty-four hours after LPS induction, clinical scores for the vehicle-treated rats were 4.6±0.2 (mean±SEM, n=8). Reduction was calculated as (grade in vehicle-treated eye—grade in test item treated eye)/(grade in vehicle-treated eye). A significant reduction (*p<0.05, **p<0.01) in the severity of the ocular inflammation was detected 24 hours after induction and intravenous treatment with the JNK inhibitor according to SEQ ID NO: 172 (“XG-104”) (1 mg/kg) administered 48 hours before EIU induction (mean score: 2.8±0.3), corresponding to a 40% (**) decrease of EIU scores compared with the score observed in vehicle group, 24 hours after induction and intravenous treatment with the JNK inhibitor according to SEQ ID NO: 172 (“XG-104”) (1 mg/kg) administered 1 week before EIU induction (mean score: 3.3±0.3), corresponding to a 27% (*) decrease of EIU scores compared with the score observed in vehicle group, and 24 hours after induction and intravenous treatment with the JNK inhibitor according to SEQ ID NO: 172 (“XG-104”) (1 mg/kg) administered 2 weeks before EIU induction (mean score: 3.0±0.2), corresponding to a 35% (**) decrease of EIU scores compared with the score observed in vehicle group. […]

[4] = 1 mg/kg i.v. 1 week before EIU induction
[5] = 1 mg/kg i.v. 2 weeks before EIU induction
[6] = 1 mg/kg i.v. 4 weeks before EIU induction
[7] = 1 mg/kg i.v. 48 hours before EIU induction

CC(C)C[C@H](NC(=O)[C@H](CC(N)=O)NC(=O)[C@H](CC(C)C)NC(=O)[C@@H](NC(=O)[C@@H](C)NC(=O)[C@@H]1CCCN1C(=O)[C@H](CCCNC(=N)N)NC(=O)[C@@H](CCCCN)NC(=O)[C@@H]1CCCN1C(=O)[C@H](CCCNC(=N)N)NC(=O)[C@@H](CCCNC(=N)N)NC(=O)[C@H](CCCNC(=N)N)NC(=O)[C@H](CCCNC(=N)N)NC(=O)[C@H](CCC(N)=O)NC(=O)[C@@H](CCCNC(=N)N)NC(=O)[C@H](CCCNC(=N)N)NC(=O)[C@H](CCCCN)NC(=O)[C@H](CCCCN)NC(=O)[C@H](N)CCCNC(=N)N)[C@@H](C)O)C(=O)N[C@H](Cc1ccccc1)C(N)=O [SEQ ID NO: 172, rKKRrQRRrRPkRPaTLNLf] (H-[dR]KKR[dR]QRR[dR]RP[dK]RP[dA]TLNL[dF]-NH2; N-terminus assumed)
epidermal hyperkeratosis of the ear (average grades) ([1]; 0.02 mg/kg IV days 1, 4, 7): minimally decreased average grades
epidermal hyperplasia of the ear ([1]; 0.2 mg/kg IV days 1, 4, 7): Minimal decreases in epidermal hyperplasia of the ear
inflammation of the ear (average grade) vs vehicle-IMQ ([1]; 0.2 mg/kg IV days 1, 4, 7): decreased inflammation of the ear
inflammation of the ear (average grade) vs vehicle-IMQ ([1]; 0.2 mg/kg IV days 1, 4, 7, listed as XG-104): significant differences from the vehicle control group
inflammation of the ear (average grade) vs vehicle-IMQ ([1]; 2 mg/kg IV days 1, 4, 7): decreased inflammation of the ear
solubility [2]: readily soluble and did not fall out of solution
clinical score (mean±SEM) [3, 4]: 3.3±0.3
decrease of EIU scores vs vehicle group [3, 4]: 27%
clinical score (mean±SEM) [3, 5]: 3.0±0.2
decrease of EIU scores vs vehicle group [3, 5]: 35%
number of PMN cells [3, 5]: significantly decreased
reduction of number of PMN cells vs vehicle [3, 5]: 88%
clinical score (mean±SEM) [3, 6]: 4.2±0.1
decrease of EIU scores vs vehicle group [3, 6]: 9%
number of PMN cells [3, 6]: significantly decreased
reduction of number of PMN cells vs vehicle [3, 6]: 69%
clinical score (mean±SEM) [3, 7]: 2.8±0.3
decrease of EIU scores vs vehicle group [3, 7]: 40%
